Common to all, as to type: functional
Test [1] deals with Rattus norvegicus. As to the kind of experiment: Compound was evaluated for mean % LSD correct responses at a dos e of 10 mg/kg in rats using drug discrimination assay.
Test [2] relates to Rattus norvegicus. Description: Compound was evaluated for mean % LSD correct responses at a dos e of 15 mg/kg in rats using drug discrimination assay.
In test [3] the test system is Rattus norvegicus. As to the kind of experiment: Compound was evaluated for mean % LSD correct responses at a dos e of 0.75 mg/kg in rats using drug discrimination assay.
Test [4] concerns Rattus norvegicus. Description: Effective dose to cause hallucinogenic activity in rats using drug discrimination assay by intraperitoneal administration. To be noted: ip.

The record followed here is ChEMBL document CHEMBL1122748, “Synthesis and evaluation of substituted 2-phenylcyclobutylamines as analogues of hallucinogenic phenethylamines: lack of LSD-like biological activity” (1984).

For orientation: ED50 means the dose that gives a 50% effect, or the effect in half of the subjects.

Turning to `COc1cc(OC)c(C2CC[C@@H]2N)cc1OC` (stereo partly drawn), the LSD in the test on Rattus norvegicus [1] is 44%.
For `COc1cc(OC)c(C2CC[C@H]2N)cc1OC` (stereo partly drawn), the LSD in the test with Rattus norvegicus [2] was determined as 28%.
Turning to `COc1cc(C2CC2N)c(OC)cc1C` (stereo not drawn), the LSD with Rattus norvegicus [3] amounted to 93%. In the test with Rattus norvegicus [4], this compound displayed a median effective dose (ED50) of 0.163 mg/kg.
`COc1cc(C2CC[C@@H]2N)c(OC)cc1C` (stereo partly drawn) registered an LSD with Rattus norvegicus [1] of 53%.
In the test on Rattus norvegicus [4], `CCN(CC)C(=O)[C@@H]1C=C2c3cccc4[nH]cc(c34)C[C@H]2N(C)C1.O=C(O)C(O)C(O)C(=O)O` returned an ED50 of 0.08 mg/kg.
For the compound `COc1cc(C2CC2N)c(OC)cc1C.Cl` (stereo not drawn), the 50% effect level in the test with Rattus norvegicus [4] (ED50) was put at a dose of 20 mg/kg. This ED50 is about 250-fold higher than that of the compound before.
Turning to `CCN(CC)C(=O)[C@@H]1C=C2c3cccc4[nH]cc(c34)C[C@H]2N(C)C1` [LYSERGIDE], the ED50 in the test with Rattus norvegicus [4] is 0.0077 mg/kg.
